Laboratory results taken from patent publication US8828906B2, “Active compound combinations having insecticidal and acaricidal properties” (Bayer CropScience AG, priority 2009, dated 2014).

Key:
Format in all cases: in vivo
Myzus persicae [1] = assay: Myzus persicae test on cabbage; settings: cabbage leaves sprayed
Protocol: (§1) Solvents: 78 parts by weight of acetone
(§2) • 1.5 parts by weight of dimethylformamide Emulsifier: 0.5 part by weight of alkylaryl polyglycol ether
(§3) To produce a suitable preparation of active compound, 1 part by weight of active compound is mixed with the stated amount of solvent and emulsifier, and the concentrate is diluted with emulsifier-containing water to the desired concentration.
Cabbage leaves (Brassica oleracea) which are heavily infested by the green peach aphid (Myzus persicae) are treated by spraying with the active compound preparation of the desired concentration.
(§4) After the desired period of time, the kill in % is determined. 100% means that all of the aphids have been killed; 0% means that none of the aphids have been killed. The kill rates determined are entered into Colby's formula (see above).

Phaedon cochleariae = Phaedon cochleariae larvae test; settings: cabbage leaves sprayed
Protocol: as §1, §2, §3
Cabbage leaves (Brassica oleracea) are treated by spraying with the active ingredient formulation of the desired concentration and populated with larvae of the mustard beetle (Phaedon cochleariae) while the leaves are still moist.
After the desired period of time, the kill in % is determined. 100% means that all beetle larvae have been killed; 0% means that none of the beetle larvae have been killed. The kill rates determined are entered into Colby's formula (see above).

Tetranychus urticae = Tetranychus urticae test (OP-resistant/spray treatment); settings: bean leaf discs sprayed
Protocol: as §1, §2, §3
Discs of bean leaves (Phaseolus vulgaris) which are infested by all stages of the greenhouse red spider mite (Tetranychus urticae) are sprayed with an active compound preparation of the desired concentration.
After the desired period of time, the effect in % is determined. 100% means that all of the spider mites have been killed; 0% means that none of the spider mites have been killed.

Spodoptera frugiperda = Spodoptera frugiperda larvae test; settings: cabbage leaves sprayed
Protocol: as §1, §2, §3
Cabbage leaves (Brassica oleracea) are treated by being sprayed with the preparation of active compound of the desired concentration and are populated with larvae of the armyworm (Spodoptera frugiperda) while the leaves are still moist.
After the desired period of time, the kill in % is determined. 100% means that all caterpillars have been killed; 0% means that none of the caterpillars have been killed. The kill rates determined are entered into Colby's formula (see above).

Myzus persicae [2] = assay: Myzus persicae test on bell pepper; settings: 0.8 g/ha, bell-pepper plants sprayed
Protocol: Solvent: 7 parts by weight of dimethylformamide
Emulsifier: 2 parts by weight of alkylaryl polyglycol ether
as §3
Bell-pepper plants (Capsicum annuum) which are heavily infested by the green peach aphid (Myzus persicae) are treated by spraying with the active compound preparation of the desired concentration.
as §4

CC1(C)C(C=C(Cl)Cl)C1C(=O)OC(C#N)c1cccc(Oc2ccccc2)c1 (stereo not drawn) [alpha-cypermethrin]
Kill in % after 1d (Myzus persicae [1]; 0.16 g/ha): 30%

CC1(C)C(C=C(Cl)Cl)C1C(=O)OC(C#N)c1ccc(F)c(Oc2ccccc2)c1 (stereo not drawn) [beta-cyfluthrin]
Kill in % after 1d (Myzus persicae [1]; 0.16 g/ha): 40%
Kill in % after 2d (Phaedon cochleariae; 0.8 g/ha): 50%
Kill in % after 2d (Phaedon cochleariae; 4 g/ha): 83%

Cc1c(COC(=O)C2C(/C=C(\Cl)C(F)(F)F)C2(C)C)cccc1-c1ccccc1 (stereo not drawn) [bifenthrin]
Kill in % after 6d (Myzus persicae [1]; 0.032 g/ha): 0%
Kill in % after 1d (Myzus persicae [1]; 0.16 g/ha): 20%
Kill in % after 2d (Phaedon cochleariae; 4 g/ha): 67%
Kill in % after 2d (Tetranychus urticae; 4 g/ha): 30%

O=C1C=C(N(CCF)Cc2ccc(Cl)nc2)CO1 [compound (I-4), 4-{[(6-chloropyrid-3-yl)methyl](2-fluoroethyl)amino}furan-2(5H)-one]
Kill in % after 1d (Myzus persicae [1]; 4 g/ha): 30%
Kill in % after 6d (Phaedon cochleariae; 20 g/ha): 0%
Kill in % after 6d (Phaedon cochleariae; 100 g/ha): 0%
Kill in % after 2d (Spodoptera frugiperda; 20 g/ha): 0%
Kill in % after 2d (Spodoptera frugiperda; 100 g/ha): 0%
Kill in % after 2d (Tetranychus urticae; 100 g/ha): 0%

O=C1C=C(N(Cc2ccc(Cl)nc2)CC(F)F)CO1 [compound (I-5), 4-{[(6-chloropyrid-3-yl)methyl](2,2-difluoroethyl)amino}furan-2(5H)-one]
Kill in % after 1d (Myzus persicae [1]; 0.8 g/ha): 10%
Kill in % after 6d (Myzus persicae [1]; 0.8 g/ha): 10%
Kill in % after 6d (Myzus persicae [2]): 45%
Kill in % after 2d (Phaedon cochleariae; 20 g/ha): 0%
Kill in % after 2d (Spodoptera frugiperda; 20 g/ha): 0%
Kill in % after 2d (Spodoptera frugiperda; 100 g/ha): 0%

CN(Cc1cnc(Cl)c(F)c1)C1=CC(=O)OC1 [compound (I-6), 4-{[(6-chloro-5-fluorpyrid-3-yl)methyl](methyl)amino}furan-2(5H)-one]
Kill in % after 2d (Phaedon cochleariae; 4 g/ha): 0%
Kill in % after 2d (Phaedon cochleariae; 100 g/ha): 0%
Kill in % after 6d (Phaedon cochleariae; 100 g/ha): 0%
Kill in % after 2d (Spodoptera frugiperda; 20 g/ha): 0%
Kill in % after 2d (Spodoptera frugiperda; 100 g/ha): 0%

CC1(C)C(C=C(Cl)Cl)C1C(=O)OC(C#N)c1cccc(Oc2ccccc2)c1 (stereo not drawn) [cypermethrin]
Kill in % after 1d (Myzus persicae [1]; 0.16 g/ha): 10%
Kill in % after 1d (Myzus persicae [1]; 0.8 g/ha): 20%

CC1(C)[C@H](C(=O)OC(C#N)c2cccc(Oc3ccccc3)c2)[C@@H]1C=C(Br)Br (stereo partly drawn) [deltamethrin]
Kill in % after 6d (Myzus persicae [1]; 0.032 g/ha): 0%
Kill in % after 2d (Spodoptera frugiperda; 0.8 g/ha): 50%

CC1(C)[C@H](C(=O)O[C@@H](C#N)c2cccc(Oc3ccccc3)c2)[C@@H]1/C=C(\Cl)C(F)(F)F [gamma-cyhalothrin]
Kill in % after 1d (Myzus persicae [1]; 0.16 g/ha): 0%
Kill in % after 2d (Spodoptera frugiperda; 4 g/ha): 67%

CC1(C)C(/C=C(\Cl)C(F)(F)F)C1C(=O)OC(C#N)c1cccc(Oc2ccccc2)c1 (stereo not drawn) [lambda-cyhalothrin]
Kill in % after 1d (Myzus persicae [1]; 0.032 g/ha): 0%
Kill in % after 2d (Phaedon cochleariae; 0.16 g/ha): 33%
Kill in % after 2d (Spodoptera frugiperda; 4 g/ha): 33%
Kill in % after 2d (Tetranychus urticae; 4 g/ha): 0%

CC1(C)[C@H](C=C(Cl)Cl)[C@H]1C(=O)OCc1c(F)c(F)cc(F)c1F [transfluthrin]
Kill in % after 6d (Myzus persicae [2]): 0%
